Like-named read-outs stand apart in the source and are kept apart here. Marks after values point to notes of the source that are not given here.
Assays:
[1] = tested on: Pseudomonas aeruginosa (PAO1); assay: MIC broth microdilution, PAO1; type: cell-based
Description: (§1) The minimum inhibitory concentration (MIC) for each tested compound was determined by the broth microdilution method as recommended by the Clinical and Laboratory Standards Institute (CLSI). In a 96-well plate, eleven two-fold serial dilutions of each compound were made in a final volume of 100 μL Luria Broth. Each well was inoculated with ˜10^5 bacterial cells at the initial time of incubation, prepared from a fresh log phase culture (OD600 of 0.5 to 1.0 depending on bacterial strain). The MIC was defined as the lowest concentration of compound that prevented bacterial growth after incubating 16 to 18 hours at 37° C. (MIC values were supported by spectrophotometric readings at OD600). DMSO served as our vehicle and negative control in each microdilution MIC assay. DMSO was serially diluted with a top concentration of 1% v/v.
as §1, with “for each compound was” for “for each tested compound was”, “Standards Institute (CLSI).^6 In a” for “Standards Institute (CLSI). In a”, “concentration of test compound that” for “concentration of compound that”, “37° C. The concentration range tested for each compound during this study was 0.10 to 100 μM. DMSO served” for “37° C. (MIC values were supported by spectrophotometric readings at OD600). DMSO served”, “1% v/v. All MIC values were obtained from a minimum of three independent experiments.” for “1% v/v.”

[2] = tested on: methicillin-resistant Staphylococcus aureus MRSA-2 (clinical isolate); assay: MIC broth microdilution, MRSA-2; type: cell-based; details: for MIC: read-out: MIC MRSA-2
Description: as §1
as §1, with “for each compound was” for “for each tested compound was”, “Standards Institute (CLSI).^6 In a” for “Standards Institute (CLSI). In a”, “concentration of test compound that” for “concentration of compound that”, “37° C. The concentration range tested for each compound during this study was 0.10 to 100 μM. DMSO served” for “37° C. (MIC values were supported by spectrophotometric readings at OD600). DMSO served”, “1% v/v. All MIC values were obtained from a minimum of three independent experiments.” for “1% v/v.”

MRSA BAA-1707 = assay: MIC broth microdilution, MRSA BAA-1707; type: cell-based, Staphylococcus aureus; details: for MIC: read-out: MIC MRSA BAA-1707; for MIC MRSA 1707: Table 4
Description: as §1, with “The MIC was defined as the lowest concentration of compound that prevented bacterial growth after incubating 16 to 18 hours at 37° C.” left out
(§2) Each well was inoculated with ˜10^5 bacterial cells at the initial time of incubation, prepared from a fresh log phase culture (OD600 of 0.5 to 1.0 depending on bacterial strain). […] The concentration range tested for each compound during this study was 0.10 to 100 μM. DMSO served as our vehicle and negative control in each microdilution MIC assay. DMSO was serially diluted with a top concentration of 1% v/v. All MIC values were obtained from a minimum of three independent experiments.

[3] = tested on: vancomycin-resistant Enterococcus faecium (VRE strain ATCC 700221); assay: MIC broth microdilution, VRE 700221; type: cell-based; details: for MIC E. faecium VRE 700221: Table 1A; for MIC VRE 700221: Table 4
Description: as §1
as §1, with “for each compound was” for “for each tested compound was”, “Standards Institute (CLSI).^6 In a” for “Standards Institute (CLSI). In a”, “concentration of test compound that” for “concentration of compound that”, “37° C. The concentration range tested for each compound during this study was 0.10 to 100 μM. DMSO served” for “37° C. (MIC values were supported by spectrophotometric readings at OD600). DMSO served”, “1% v/v. All MIC values were obtained from a minimum of three independent experiments.” for “1% v/v.”

[4] = tested on: Acinetobacter baumannii (ATCC 1794); assay: MIC broth microdilution, A. baumannii 1794; type: cell-based; details: for MIC A. baumannii 1794: Table 1A, in µM; for MIC A. bau. 1794: Table 4
Description: as §1
as §1, with “for each compound was” for “for each tested compound was”, “Standards Institute (CLSI).^6 In a” for “Standards Institute (CLSI). In a”, “concentration of test compound that” for “concentration of compound that”, “37° C. The concentration range tested for each compound during this study was 0.10 to 100 μM. DMSO served” for “37° C. (MIC values were supported by spectrophotometric readings at OD600). DMSO served”, “1% v/v. All MIC values were obtained from a minimum of three independent experiments.” for “1% v/v.”

[5] = tested on: methicillin-sensitive Staphylococcus aureus ATCC 29213; assay: MIC broth microdilution, S. aureus 29213; type: cell-based
Description: as §1, with “The MIC was defined as the lowest concentration of compound that prevented bacterial growth after incubating 16 to 18 hours at 37° C.” left out
as §2

MRSA BAA-44 = assay: MIC broth microdilution, MRSA BAA-44; type: cell-based, Staphylococcus aureus
Description: as §1, with “The MIC was defined as the lowest concentration of compound that prevented bacterial growth after incubating 16 to 18 hours at 37° C.” left out
as §2

[6] = tested on: SA-129 (clinical isolate); assay: MIC broth microdilution, SA-129; type: cell-based, Staphylococcus aureus
Description: as §1, with “The MIC was defined as the lowest concentration of compound that prevented bacterial growth after incubating 16 to 18 hours at 37° C.” left out
as §2

[7] = tested on: MRSA-1 (clinical isolate); assay: MIC broth microdilution, MRSA-1; type: cell-based, Staphylococcus aureus
Description: as §1, with “The MIC was defined as the lowest concentration of compound that prevented bacterial growth after incubating 16 to 18 hours at 37° C.” left out
as §2

[8] = tested on: methicillin-resistant Staphylococcus epidermidis (MRSE strain ATCC 35984); assay: MIC broth microdilution, MRSE 35984; type: cell-based; details: for MIC S. epidermidis MRSE 35984: Table 1A; for MIC MRSE 35984: Table 4
Description: as §1
as §1, with “for each compound was” for “for each tested compound was”, “Standards Institute (CLSI).^6 In a” for “Standards Institute (CLSI). In a”, “concentration of test compound that” for “concentration of compound that”, “37° C. The concentration range tested for each compound during this study was 0.10 to 100 μM. DMSO served” for “37° C. (MIC values were supported by spectrophotometric readings at OD600). DMSO served”, “1% v/v. All MIC values were obtained from a minimum of three independent experiments.” for “1% v/v.”

[9] = tested on: SA-156 (clinical isolate); assay: MIC broth microdilution, SA-156; type: cell-based, Staphylococcus aureus
Description: as §1, with “The MIC was defined as the lowest concentration of compound that prevented bacterial growth after incubating 16 to 18 hours at 37° C.” left out
as §2

[10] = tested on: SA-147 (clinical isolate); assay: MIC broth microdilution, SA-147; type: cell-based, Staphylococcus aureus
Description: as §1, with “The MIC was defined as the lowest concentration of compound that prevented bacterial growth after incubating 16 to 18 hours at 37° C.” left out
as §2

[11] = tested on: SA-138 (clinical isolate); assay: MIC broth microdilution, SA-138; type: cell-based, Staphylococcus aureus
Description: as §1, with “The MIC was defined as the lowest concentration of compound that prevented bacterial growth after incubating 16 to 18 hours at 37° C.” left out
as §2

MRSA-2 biofilms = assay: Calgary Biofilm Device assay (MBC/MBEC), MRSA-2; type: cell-based, Staphylococcus aureus; details: Table 2A; CBD assay
Description: The lid of the Calgary device was then removed, washed and transferred to another 96-well plate containing 2-fold serial dilutions of the test compounds (the “challenge plate”). The total volume of media with compound in each well in the challenge plate is 150 μL. […] The lid was then removed from the challenge plate and MBC/MBEC values were determined using different final assays. […] The MBC values were determined as the concentration giving a lack of visible bacterial growth (i.e., turbidity). […] In select experiments, pegs from the Calgary device were removed from lead biofilm eradicators after final incubation, sonicated for 30 minutes in PBS and plated out to determine biofilm cell killing of lead biofilm-eradicating agents (i.e., colony forming unit per milliliter, CFU/mL).
Using a Calgary Biofilm Device, bacterial biofilms are established on pegs suspended to the bottom of a 96-well plate lid. Following biofilm establishment on lid pegs, lids are then transferred to new 96-well plates containing serial dilutions of test compound and allowed to incubate. After compound treatment, 96-well plate lids with pegs are once again transferred to 96-well plates containing fresh media. During this final phase of the assay, viable biofilms will grow and disperse planktonic cells into the media where they will grow and give a turbid well result. Conversely, wells that have no growth are a result of pegs that had eradicated bacterial biofilms. The lowest concentration at which no turbidity is observed is the minimum biofilm eradication concentration (MBEC). Using the Calgary Biofilm Device, both minimum biofilm eradication concentrations and minimum bactericidal concentrations (MBC) for planktonic bacterial can be determined using one assay from a single bacterial culture (FIG. 3A).

[12] = tested on: human red blood cells (hRBC); assay: Hemolysis of red blood cells; type: cell-based
Description: The washing was repeated three times with the buffer. In a 96-well plate, test compounds were added to the buffer from DMSO stocks. […] The plate was then incubated for 1 hour at 37° C. After incubation, the plate was centrifuged for 5 minutes at 3,500 rpm. Then 80 μL of the supernatant was transferred to another 96-well plate and the optical density (OD) was read at 405 nm. DMSO served as our negative control (0% hemolysis) while Triton X served as our positive control (100% hemolysis). […] All reported data correspond to three independent experiments. Ten-point dose-response curves were generated in 96-well plates to determine 50% hemolysis (HC50 values) of red blood cells.
The washing was repeated three times with the buffer. In 96-well plate, the test compounds were added to the buffer. Then 50 μL of 2% of hRBCs in the buffer were added to the test plate to make the final concentrations ranging from 0.2 to 200 μM of each test compound. The plate was then incubated for 1 hour at 37° C. After incubation, the plate was centrifuged for 5 minutes at 3500 rpm and then 80 μL of the supernatant was transferred to another 96-well plate and the Optical Density (OD) was read at 405 nm. DMSO served as our negative control (0% haemolysis) and Triton X served as our positive control (100% haemolysis). The HC50 (concentration of test compound required to lyse red blood cells by 50%) was calculated by plotting the dose-response curve (not shown) with Graphpad Prism 6.0. All data were obtained from three independent haemolysis experiments.

Structure (SMILES) | MIC PAO1 ([1]; Table 1A) [µM] | MIC PAO1 ([1]; Table 4) [µM] | MIC MRSA-2 ([2]; Table 1A) [µM] | MIC MRSA-2 ([2]; Table 4) | MIC (MRSA BAA-1707; Table 1B) [µM] | MIC (MRSA BAA-1707; Table 3) [µM] | MIC MRSA 1707 (MRSA BAA-1707) | MIC E. faecium VRE 700221 [3] [µM] | MIC VRE 700221 [3] [µM] | MIC A. baumannii 1794 [4] | MIC A. bau. 1794 [4] [µM] | MIC ([5]; Table 1B) [µM] | MIC ([5]; Table 3) [µM] | MIC ([6]; Table 1B) [µM] | MIC ([6]; Table 3) [µM] | MIC S. epidermidis MRSE 35984 [8] | MIC MRSE 35984 [8] | MIC ([11]; Table 1B) [µM] | MIC ([11]; Table 3) [µM] | other results
CCCCCCCCCCCCCCCCn1cc[n+](Cc2cccc(OC)c2)c1C.[Br-] [Compound 17] | > 100 | >100 | 1.56 | 2.35a micromolar | 1.56 | 1.56 | 1.56 µM | 1.56 | 1.56 | >100* | >100 | 3.13 | 3.13 | 3.13 | 3.13 | 2.35^a | 2.35a micromolar | 3.13 | 3.13 | MIC MRSA-2 ([2]; Table 1B): 2.35^a μM; MIC MRSA-2 ([2]; Table 3): 2.35^a μM; MIC MRSA BAA-44 (MRSA BAA-44; Table 1B): 2.35^a μM; MIC MRSA BAA-44 (MRSA BAA-44; Table 3): 2.35^a μM; MIC MRSA-1 ([7]; Table 1B): 4.69^a μM; MIC MRSA-1 ([7]; Table 3): 4.69^a μM; MIC SA-156 ([9]; Table 1B): 2.35^a μM; MIC SA-156 ([9]; Table 3): 2.35^a μM; MIC SA-147 ([10]; Table 1B): 2.35^a μM; MIC SA-147 ([10]; Table 3): 2.35^a μM
CCCCCCCCCCCCCCCCn1c(C)[n+](Cc2ccccc2)c2ccccc21.[Br-] [Compound 25] | > 100 | >100 | 3.13 | 3.13 µM | 12.5 | 12.5 | 9.38a micromolar | 1.56 | 1.56 | >100 | >100 | 12.5 | 12.5 | 3.13 | 3.13 | 3.13 µM | 3.13 µM | 6.25 | 6.25 | MIC ([2]; Table 1B): 12.5 µM; MRSA-2 MIC ([2]; Table 2A): 3.13 µM; MIC ([2]; Table 3): 3.13 µM; MRSA BAA-1707 MIC (MRSA BAA-1707; Table 2A): 9.38^a μM; VRE MIC ([3]; Table 2A): 1.56 µM; MRSA-2 MBC (MRSA-2 biofilms): 250 µM; MRSA-2 MBEC (MRSA-2 biofilms): 188 µM; MIC (MRSA BAA-44; Table 1B): 12.5 µM; MIC (MRSA BAA-44; Table 3): 12.5 µM; MIC ([7]; Table 1B): 12.5 µM; MIC ([7]; Table 3): 12.5 µM; MIC ([8]; Table 2A, read-out: MRSE 35984 MIC): 3.13 µM; MIC ([9]; Table 1B): 12.5 µM; MIC ([9]; Table 3): 12.5 µM; MIC ([10]; Table 1B): 6.25 µM; MIC ([10]; Table 3): 6.25 µM; HC50 ([12]; Table 1A): 10.4 µM; RBC HC50 ([12]; Table 4, concentration required to lyse 50% of red blood cells): 10.4 µM
